Assay results reported in the supplement of paper PMC11061612.

Columns and labels:
Olaparib = compound: O=C(c1cc(Cc2n[nH]c(=O)c3ccccc23)ccc1F)N1CCN(C(=O)C2CC2)CC1 [Olaparib]
Procedure, shortened: (§1)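 In 1536-well plates, cancer cell lines in 7.5 μl DMEM/F12 or RPMI with 10% FBS spent 24 hours at 37°C and 5% CO2 and were then dosed for 72 hours with final DMSO typically 0.2%. Viability was read by CellTiter-Glo 2.0 luminescence and scaled between blank-well and DMSO-well means. The single-agent IC50 was fitted from dose responses using a logistic curve in a non-linear mixed effects model, and that logistic curve had two parameters.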

Lapatinib = compound: CS(=O)(=O)CCNCc1ccc(-c2ccc3ncnc(Nc4ccc(OCc5cccc(F)c5)c(Cl)c4)c3c2)o1 [Lapatinib]; details: max 10 µM
Procedure, shortened: as §1

AZD5153 = compound: COc1nnc2ccc(N3CCC(c4ccc(OCCN5CCN(C)C(=O)[C@H]5C)cc4)CC3)nn12 [AZD5153]; details: max 1 µM
Procedure, shortened: as §1

AZD0156 = compound: CN(C)CCCOc1ccc(-c2ccc3ncc4c(c3c2)n(C2CCOCC2)c(=O)n4C)cn1 [AZD0156]
Procedure, shortened: as §1

AZD4320 = compound: CN(CC[C@H](CSC1=CC=CC=C1)NC2=C(C=C(C=C2)S(=O)(=O)NC(=O)C3=CC=C(C=C3)N4CCC(CC4)[C@H](C5=CC=CC=C5C6=CC=C(C=C6)Cl)O)S(=O)(=O)C(F)(F)F)CCO [AZD4320]; details: max 1 µM
Procedure, shortened: as §1

SN-38 = compound: CCc1c2c(nc3ccc(O)cc13)-c1cc3c(c(=O)n1C2)COC(=O)[C@]3(O)CC [SN-38]; details: max 0.3 µM
Procedure, shortened: as §1

SG3199 = compound: CC1=CN2[C@@H](C1)C=NC3=CC(=C(C=C3C2=O)OC)OCCCCCOC4=C(C=C5C(=C4)N=C[C@@H]6CC(=CN6C5=O)C)OC [SG3199]; details: max 0.001 µM
Procedure, shortened: as §1

Savolitinib = compound: C[C@@H](c1ccc2nccn2c1)n1nnc2ncc(-c3cnn(C)c3)nc21 [Savolitinib]; details: max 1 µM
Procedure, shortened: as §1

AZD5991 = compound: Cc1c2c(nn1C)CSCc1cc(n(C)n1)CSc1cc(c3ccccc3c1)OCCCc1c(C(=O)O)n(C)c3c-2c(Cl)ccc13 [AZD5991]; details: max 1 µM
Procedure, shortened: as §1

AZD2811 = compound: CCN(CCO)CCCOc1ccc2c(Nc3cc(CC(=O)Nc4cccc(F)c4)[nH]n3)ncnc2c1 [AZD2811]; details: max 1 µM
Procedure, shortened: as §1

Taselisib = compound: Cc1nc(-c2cn3c(n2)-c2ccc(-c4cnn(C(C)(C)C(N)=O)c4)cc2OCC3)n(C(C)C)n1 [Taselisib]; details: max 10 µM
Procedure, shortened: as §1

AZD1390 = compound: CC(C)n1c(=O)n(C)c2cnc3cc(F)c(-c4ccc(OCCCN5CCCCC5)nc4)cc3c21 [AZD1390]; details: max 0.3 µM
Procedure, shortened: as §1

Selumetinib = compound: Cn1cnc2c(F)c(Nc3ccc(Br)cc3Cl)c(C(=O)NOCCO)cc21 [Selumetinib]
Procedure, shortened: as §1

Capivasertib = compound: C1CN(CCC1(C(=O)N[C@@H](CCO)C2=CC=C(C=C2)Cl)N)C3=NC=NC4=C3C=CN4 [Capivasertib]
Procedure, shortened: as §1

Crizotinib = compound: C[C@@H](Oc1cc(-c2cnn(C3CCNCC3)c2)cnc1N)c1c(Cl)ccc(F)c1Cl [Crizotinib]; details: max 10 µM
Procedure, shortened: as §1

Alisertib = compound: COc1cc(Nc2ncc3c(n2)-c2ccc(Cl)cc2C(c2c(F)cccc2OC)=NC3)ccc1C(=O)O [Alisertib]; details: max 10 µM
Procedure, shortened: as §1

Venetoclax = compound: CC1(C)CCC(CN2CCN(c3ccc(C(=O)NS(=O)(=O)c4ccc(NCC5CCOCC5)c([N+](=O)[O-])c4)c(Oc4cnc5[nH]ccc5c4)c3)CC2)=C(c2ccc(Cl)cc2)C1 [Venetoclax]; details: max 1 µM
Procedure, shortened: as §1

AZD7648 = compound: Cc1cc2ncnn2cc1Nc1ncc2c(n1)n(C1CCOCC1)c(=O)n2C [AZD7648]; details: max 10 µM
Procedure, shortened: as §1

AZD8186 = compound: C[C@@H](Nc1cc(F)cc(F)c1)c1cc(C(=O)N(C)C)cc2c(=O)cc(N3CCOCC3)oc12 [AZD8186]; details: max 3 µM
Procedure, shortened: as §1

Trametinib = compound: CC(=O)Nc1cccc(-n2c(=O)n(C3CC3)c(=O)c3c(Nc4ccc(I)cc4F)n(C)c(=O)c(C)c32)c1 [Trametinib]; details: max 1 µM
Procedure, shortened: as §1

Gefitinib = compound: COc1cc2ncnc(Nc3ccc(F)c(Cl)c3)c2cc1OCCCN1CCOCC1 [Gefitinib]; details: max 10 µM
Procedure, shortened: as §1

Prexasertib = compound: COc1cccc(OCCCN)c1-c1cc(Nc2cnc(C#N)cn2)n[nH]1 [Prexasertib]; details: max 1 µM
Procedure, shortened: as §1

AZD6738 = compound: C[C@@H]1COCCN1C2=NC(=NC(=C2)C3(CC3)[S@](=N)(=O)C)C4=C5C=CNC5=NC=C4 [AZD6738]; details: max 10 µM
Procedure, shortened: as §1

Palbociclib = compound: CC(=O)c1c(C)c2cnc(Nc3ccc(N4CCNCC4)cn3)nc2n(C2CCCC2)c1=O [Palbociclib]; details: max 10 µM
Procedure, shortened: as §1

Dasatinib = compound: CC1=C(C(=CC=C1)Cl)NC(=O)C2=CN=C(S2)NC3=CC(=NC(=N3)C)N4CCN(CC4)CCO [Dasatinib]; details: max 2 µM
Procedure, shortened: as §1

Doxorubicin = compound: COc1cccc2c1C(=O)c1c(O)c3c(c(O)c1C2=O)C[C@@](O)(C(=O)CO)C[C@@H]3O[C@H]1C[C@H](N)[C@H](O)[C@H](C)O1 [Doxorubicin]; details: max 1 µM
Procedure, shortened: as §1

AZD1775 = compound: C=CCn1c(=O)c2cnc(Nc3ccc(N4CCN(C)CC4)cc3)nc2n1-c1cccc(C(C)(C)O)n1 [AZD1775]
Procedure, shortened: as §1

Cell Line | IC50, cell viability 72 h (Olaparib; max 10 µM) [nM] | IC50, cell viability 72 h (Lapatinib) [nM] | IC50, cell viability 72 h (AZD5153) [nM] | IC50, cell viability 72 h (AZD0156; max 3 µM) [nM] | IC50, cell viability 72 h (AZD4320) [nM] | IC50, cell viability 72 h (SN-38) [nM] | IC50, cell viability 72 h (SG3199) [nM] | IC50, cell viability 72 h (Savolitinib) [nM] | IC50, cell viability 72 h (AZD5991) [nM] | IC50, cell viability 72 h (AZD2811) [nM] | IC50, cell viability 72 h (Taselisib) [nM] | IC50, cell viability 72 h (AZD1390) [nM] | IC50, cell viability 72 h (Selumetinib; max 10 µM) [nM] | IC50, cell viability 72 h (Capivasertib; max 10 µM) [nM] | IC50, cell viability 72 h (Crizotinib) [nM] | IC50, cell viability 72 h (Alisertib) [nM] | IC50, cell viability 72 h (Venetoclax) [nM] | IC50, cell viability 72 h (AZD7648) [nM] | IC50, cell viability 72 h (AZD8186) [nM] | IC50, cell viability 72 h (Trametinib) [nM] | IC50, cell viability 72 h (Gefitinib) [nM] | IC50, cell viability 72 h (Prexasertib) [nM] | IC50, cell viability 72 h (AZD6738) [nM] | IC50, cell viability 72 h (Palbociclib) [nM] | IC50, cell viability 72 h (Dasatinib) [nM] | IC50, cell viability 72 h (Doxorubicin) [nM] | IC50, cell viability 72 h (AZD1775; max 3 µM) [nM] | IC50, cell viability 72 h (Olaparib; max 3 µM) [nM] | IC50, cell viability 72 h (Capivasertib; max 3 µM) [nM] | IC50, cell viability 72 h (AZD0156; max 1 µM) [nM] | IC50, cell viability 72 h (Selumetinib; max 3 µM) [nM] | IC50, cell viability 72 h (AZD1775; max 1 µM) [nM]
HT-1197 (Bladder Carcinoma) | > 10000 | > 10000 | 697 | > 3000 | > 1000 | > 300 | > 1 | > 1000 | > 1000 | > 1000 | 2890 | > 300 | > 10000 | > 10000 | > 10000 | > 10000 | > 1000 | > 10000 | > 3000 | > 1000 | > 10000 | > 1000 | > 10000 | > 10000 | > 2000 | > 1000 | 2150 |  |  |  |  | 
IGROV-1 (Ovarian Carcinoma) | > 10000 | 764 | 390 | > 3000 | > 1000 | 177 | > 1 | > 1000 | > 1000 | > 1000 | 17.2 | > 300 | 1070 | 438 | 9830 | 1630 | > 1000 | > 10000 | 1320 | 19.6 | 1550 | 54 | 2900 | 5560 | 16.9 | 924 | 191 |  |  |  |  | 
JURL-MK1 (Chronic Myelogenous Leukemia) | > 10000 | > 10000 | 61.3 | > 3000 | 322 | 9.8 | > 1 | > 1000 | 778 | > 1000 | > 10000 | > 300 | 339 | > 10000 | 320 | 297 | > 1000 | > 10000 | > 3000 | 5.76 | > 10000 | 2.55 | 228 | 248 | < 2 | 115 | 85.1 |  |  |  |  | 
M14 (Melanoma) |  |  |  | > 3000 |  |  |  |  |  |  |  |  |  |  |  |  |  |  |  |  |  |  |  |  |  |  | 624 | > 3000 | > 3000 |  |  | 
NCI-H1048 (Small Cell Lung Carcinoma) | > 10000 | > 10000 | > 1000 | > 3000 | 505 | 2.99 | > 1 | > 1000 |  | 323 | 348 | > 300 | > 10000 | 9210 | > 10000 | 497 | > 1000 | > 10000 | > 3000 | > 1000 | > 10000 | 132 | > 10000 | > 10000 | > 2000 | 261 | 798 |  |  |  |  | 
NCI-H1975 (Lung Adenocarcinoma) | > 10000 | > 10000 | 359 | > 3000 | > 1000 | > 300 | > 1 | > 1000 | > 1000 | > 1000 | 1220 | > 300 | > 10000 | 3840 | > 10000 | > 10000 | > 1000 | > 10000 | > 3000 | > 1000 | > 10000 | > 1000 | > 10000 | > 10000 | 1010 | 497 | 1620 |  |  |  |  | 
NCI-H2170 (Squamous Cell Lung Carcinoma) | > 10000 | 362 | > 1000 | > 3000 | 665 | 13.6 | > 1 | > 1000 | > 1000 | 391 | 1540 | > 300 | > 10000 | 5470 | 7380 | 1100 | > 1000 | > 10000 | > 3000 | > 1000 | 1980 | 46.8 | 7670 | > 10000 | > 2000 | 539 | 678 |  |  |  |  | 
RVH-421 (Melanoma) | > 10000 |  |  |  | > 1000 | > 300 | > 1 |  | > 1000 | > 1000 | > 10000 |  |  |  |  | > 10000 | > 1000 | > 10000 | 3000 | > 1000 |  | > 1000 | > 10000 |  |  | > 1000 |  |  | > 3000 | > 1000 | > 3000 | > 1000
TK (B-Cell Non-Hodgkin's Lymphoma) | > 10000 | > 10000 | > 1000 | > 3000 |  | 16.7 | > 1 | > 1000 | > 1000 | > 1000 | > 10000 | > 300 | > 10000 | > 10000 | > 10000 | 2790 | 46.2 | > 10000 | > 3000 | > 1000 | > 10000 | 10.8 | 1020 | > 10000 | > 2000 | > 1000 | 293 |  |  |  |  | 
